According to the supplement of paper PMC10307832:

Key:
Assay in all cases: relative viability (nuclei count vs DMSO), 5 days (fraction); higher = more cells survive
MK-8033 + Vorinostat = compound: Cn1cc(-c2cnc3ccc4ccc(CS(=O)(=O)NCc5ccccn5)cc4c(=O)c3c2)cn1 [MK-8033] + O=C(CCCCCCC(=O)Nc1ccccc1)NO [Vorinostat] (partner 1 µM)
Outline: (§1)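 After 5 days of treatment, lung cancer cells in 1536-well plates were fixed and stained in a single step (final 0.05% Triton X-100, 1% formaldehyde, 1 ug/ml Hoechst) and their nuclei counted on 4× images. Treatment had been applied by pin tool the day after seeding as one drug alone or as a fixed anchor-drug dose with five library-drug doses (not always all listed) in √10 steps. Relative viability is the nuclei count of treated wells divided by that of vehicle wells, and values are medians of duplicate plates.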

Irinotecan + Decitabine = compound: CCc1c2c(nc3ccc(OC(=O)N4CCC(N5CCCCC5)CC4)cc13)-c1cc3c(c(=O)n1C2)COC(=O)[C@]3(O)CC [Irinotecan] + Nc1ncn([C@H]2C[C@H](O)[C@@H](CO)O2)c(=O)n1 [Decitabine] (partner 2 µM)
Outline: as §1

MK-8033 + Palbociclib = compound: Cn1cc(-c2cnc3ccc4ccc(CS(=O)(=O)NCc5ccccn5)cc4c(=O)c3c2)cn1 [MK-8033] + CC(=O)c1c(C)c2cnc(Nc3ccc(N4CCNCC4)cn3)nc2n(C2CCCC2)c1=O [Palbociclib] (partner 0.5 µM)
Outline: as §1

Irinotecan + Alpelisib = compound: CCc1c2c(nc3ccc(OC(=O)N4CCC(N5CCCCC5)CC4)cc13)-c1cc3c(c(=O)n1C2)COC(=O)[C@]3(O)CC [Irinotecan] + Cc1nc(NC(=O)N2CCC[C@H]2C(N)=O)sc1-c1ccnc(C(C)(C)C(F)(F)F)c1 [Alpelisib] (partner 2 µM)
Outline: as §1

Row | Cell Line | relative viability (MK-8033 + Vorinostat; first compound 0.02 µM) | relative viability (MK-8033 + Vorinostat; first compound 0.06325 µM) | relative viability (MK-8033 + Vorinostat; first compound 0.2 µM) | relative viability (MK-8033 + Vorinostat; first compound 0.6325 µM) | relative viability (MK-8033 + Vorinostat; first compound 2 µM) | relative viability (Irinotecan + Decitabine; first compound 0.6325 µM) | relative viability (Irinotecan + Decitabine; first compound 2 µM) | relative viability (Irinotecan + Decitabine; first compound 6.325 µM) | relative viability (Irinotecan + Decitabine; first compound 20 µM) | relative viability (MK-8033 + Palbociclib; first compound 0.02 µM) | relative viability (MK-8033 + Palbociclib; first compound 0.06325 µM) | relative viability (MK-8033 + Palbociclib; first compound 0.2 µM) | relative viability (MK-8033 + Palbociclib; first compound 0.6325 µM) | relative viability (MK-8033 + Palbociclib; first compound 2 µM) | relative viability (Irinotecan + Alpelisib; first compound 0.6325 µM) | relative viability (Irinotecan + Alpelisib; first compound 2 µM) | relative viability (Irinotecan + Alpelisib; first compound 6.325 µM) | relative viability (Irinotecan + Alpelisib; first compound 20 µM)
1 | NCI-H2170 | 0.802 | 0.882 | 0.691 | 0.768 | 0.79 | 0.396 | 0.222 | 0.128 | 0.122 | 0.392 | 0.345 | 0.372 | 0.388 | 0.391 | 0.929 | 0.399 | 0.3 | 0.216
2 | LOU-NH91 | 0.923 | 0.638 | 0.835 | 0.86 | 0.92 | 0.79 | 0.768 | 0.492 | 0.311 | 0.495 | 0.523 | 0.512 | 0.531 | 0.53 | 0.663 | 0.596 | 0.422 | 0.301
3 | LXF-289 | 0.843 | 0.615 | 0.737 | 0.755 | 0.812 | 0.351 | 0.218 | 0.162 | 0.165 | 0.612 | 0.579 | 0.61 | 0.597 | 0.596 | 0.994 | 0.504 | 0.273 | 0.214
4 | NCI-H727 | 1.2 | 0.981 | 1.11 | 1.16 | 1.13 | 0.617 | 0.751 | 0.527 | 0.602 | 0.668 | 0.617 | 0.653 | 0.612 | 0.657 | 0.324 | 0.433 | 0.354 | 0.422
5 | NCI-H2009 | 0.678 | 0.689 | 0.776 | 0.733 | 0.676 | 0.358 | 0.32 | 0.266 | 0.135 | 0.251 | 0.23 | 0.249 | 0.214 | 0.304 | 0.838 | 0.591 | 0.26 | 0.135
6 | NCI-H1395 | 0.673 | 0.673 | 0.638 | 0.654 | 0.692 |  | 0.722 | 0.522 | 0.301 | 0.499 | 0.588 | 0.654 | 0.612 | 0.624 |  | 0.707 | 0.52 | 0.246
7 | NCI-H1993 | 0.688 | 0.644 | 0.587 | 0.571 | 0.638 |  | 0.581 | 0.542 | 0.6 | 0.563 | 0.566 | 0.453 | 0.649 | 0.424 | 0.617 | 0.643 | 0.63 | 0.68
8 | HCC-366 | 0.392 | 0.313 | 0.253 | 0.329 | 0.324 | 0.341 | 0.212 | 0.104 | 0.0739 | 0.417 | 0.343 | 0.355 | 0.367 | 0.351 | 0.404 | 0.187 | 0.0425 | 0.0448
9 | NCI-H322M | 1.04 | 0.774 | 0.829 | 0.966 | 0.888 | 0.602 | 0.725 | 0.548 | 0.342 | 0.531 | 0.443 | 0.45 | 0.49 | 0.433 | 0.576 | 0.37 | 0.282 | 0.395
